The target of test [1] is T1, Delta-type opioid receptor (Homo sapiens, UniProt P41143). The experiment in a line: DOR agonists, SAR follow-up, image-based (AID 2370). Type of test: functional.
In test [2] the target is T2, Kappa-type opioid receptor (Homo sapiens, UniProt P41145). The test is described as follows: kappa opioid receptor blockers, image-based, SAR follow-up (AID 2348). Type of test: functional.
The target in test [3] is T2, Kappa-type opioid receptor. The experiment in a line: kappa opioid receptor blockers, cell-based, luminescence, beta-arrestin, SAR follow-up (AID 2285). In kind it is functional.
For test [4], the target named is T2, Kappa-type opioid receptor. The test is described as follows: kappa opioid receptor activation potency – imaging, image-based, SAR follow-up (AID 2359). In kind it is functional.
The target of test [5] is T3, Mu-type opioid receptor (Homo sapiens, UniProt P35372). The test is described as follows: mu opioid receptor blockers – image-based, SAR follow-up (AID 2420).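 Also: compounds added before stimulation of receptor with agonist DAMGO.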 Type of test: functional.
T3 sequence (P35372 whole entry): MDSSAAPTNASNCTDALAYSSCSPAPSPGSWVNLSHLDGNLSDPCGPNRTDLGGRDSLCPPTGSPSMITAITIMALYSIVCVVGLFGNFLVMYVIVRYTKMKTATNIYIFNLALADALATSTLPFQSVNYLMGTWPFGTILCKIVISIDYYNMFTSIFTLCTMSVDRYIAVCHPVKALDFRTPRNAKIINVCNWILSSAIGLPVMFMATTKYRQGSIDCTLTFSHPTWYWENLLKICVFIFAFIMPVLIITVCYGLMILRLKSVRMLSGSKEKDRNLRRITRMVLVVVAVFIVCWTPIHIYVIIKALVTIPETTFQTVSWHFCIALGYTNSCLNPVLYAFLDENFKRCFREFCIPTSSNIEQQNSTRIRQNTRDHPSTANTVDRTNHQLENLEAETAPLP
In test [6] the target is T1, Delta-type opioid receptor. The test is described as follows: delta opioid receptor blockers – image-based, SAR follow-up (AID 2357). In kind it is functional.
Test [7] concerns the target T3, Mu-type opioid receptor. The test is described as follows: mu opioid receptor activators, image-based, SAR follow-up (AID 2352). In kind it is functional.
A further test addresses Cannabinoid receptor 1 (Homo sapiens, UniProt P21554). The test is described as follows: SAR analysis of antagonists of the Cannabinoid Receptor 1 using an Image-Based Assay. [Related pubchem assays (depositor defined):AID1961, AID1965]. Type of test: functional.
In test [8] the target is T4, Tyrosine-protein phosphatase non-receptor type 7 (Homo sapiens, UniProt P35236).
T4 sequence (P35236 whole entry): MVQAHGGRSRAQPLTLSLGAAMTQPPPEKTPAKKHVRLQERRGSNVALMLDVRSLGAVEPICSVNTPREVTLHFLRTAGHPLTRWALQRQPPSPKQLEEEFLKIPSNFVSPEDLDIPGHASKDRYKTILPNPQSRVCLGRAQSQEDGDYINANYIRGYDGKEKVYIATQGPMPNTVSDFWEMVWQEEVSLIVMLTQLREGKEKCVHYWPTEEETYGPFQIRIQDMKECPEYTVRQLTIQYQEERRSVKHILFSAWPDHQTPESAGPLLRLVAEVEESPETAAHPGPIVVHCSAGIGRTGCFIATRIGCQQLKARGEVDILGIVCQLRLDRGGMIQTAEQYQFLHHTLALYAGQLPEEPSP
The test is described as follows: SAR analysis of chemical inhibitors of HePTP using a Fluorescent assay - Set 2. [Related pubchem assays (depositor defined):AID1059, AID1077, AID1661, AID2085, AID521]. Type of test: functional.

Test [9] addresses T5, Cannabinoid receptor 2 (Homo sapiens, UniProt P34972). The experiment in a line: SAR analysis of antagonists of the Cannabinoid Receptor 2 using an Image-Based Assay - Set 2. [Related pubchem assays (depositor defined):AID1961, AID1965]. In kind it is functional.
The target of test [10] is Dual specificity protein phosphatase 3 (Homo sapiens, UniProt P51452). The experiment in a line: SAR VHR1 Fluorescent Assay for In Vitro dose response studies Set 2. [Related pubchem assays (depositor defined):AID1654, AID1661, AID1878]. Type of test: functional.
Sequence of Dual specificity protein phosphatase 3 (P51452 whole entry): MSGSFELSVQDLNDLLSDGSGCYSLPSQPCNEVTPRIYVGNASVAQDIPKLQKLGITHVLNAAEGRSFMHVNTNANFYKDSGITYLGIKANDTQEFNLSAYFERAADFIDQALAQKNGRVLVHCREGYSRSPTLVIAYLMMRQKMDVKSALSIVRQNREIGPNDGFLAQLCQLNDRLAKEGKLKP
Test [11] deals with T6, G-protein coupled receptor 55 (Homo sapiens, UniProt Q9Y2T6). The test is described as follows: selective activators of receptor GPR55 – imaging, U2OS cells, beta-arrestin-GFP redistribution, primary screen (AID 1961). In kind it is functional.
T6 sequence (Q9Y2T6 whole entry): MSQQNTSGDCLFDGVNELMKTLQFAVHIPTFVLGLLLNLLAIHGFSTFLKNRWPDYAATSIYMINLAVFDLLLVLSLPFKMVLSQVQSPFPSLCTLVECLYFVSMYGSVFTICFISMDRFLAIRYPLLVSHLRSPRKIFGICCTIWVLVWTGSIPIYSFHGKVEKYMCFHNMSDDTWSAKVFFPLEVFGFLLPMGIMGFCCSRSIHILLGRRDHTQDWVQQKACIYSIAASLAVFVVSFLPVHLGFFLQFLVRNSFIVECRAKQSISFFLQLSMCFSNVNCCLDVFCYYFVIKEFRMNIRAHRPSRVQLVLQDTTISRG
The target in test [12] is T6, G-protein coupled receptor 55. The experiment in a line: SAR analysis of selective Agonists of GPR55 using an Image-Based Assay. [Related pubchem assays (depositor defined):AID1961, AID1965]. In kind it is functional.
Test [13] addresses T7, Polyadenylate-binding protein 1 (Homo sapiens, UniProt P11940). The test is described as follows: MLLE domain peptide-binding blockers, IC50 – biochemical, fluorescence polarization, FITC-PAM2 peptide, dose response (AID 602259). Type of test: functional. The conditions noted are these: read-out: IC50_Mean.
In test [14] the target is T5, Cannabinoid receptor 2. The test is described as follows: SAR analysis of agonists of the Cannabinoid Receptor 2 using an Image-Based Assay - Set 2. [Related pubchem assays (depositor defined):AID1961, AID1965]. Type of test: functional.
The target of test [15] is T7, Polyadenylate-binding protein 1. The test is described as follows: MLLE binding blockers, Cy5 peptide tracer – biochemical, fluorescence polarization, Cy5-PAM2 peptide, secondary, miRNA deadenylation inhibitor project, dose response (AID 602260). The note with it: read-out: IC50_Mean. In kind it is functional.
Test [16] can be described thus: viability loss of HPDE-C7K cells – cell-based, fluorescence, HTS, primary screen (AID 431). In kind it is functional. The note with it: Homo sapiens.
Test [17] deals with T8, Runt-related transcription factor 1/Core-binding factor subunit beta (Homo sapiens, UniProt Q01196+Q13951). The experiment in a line: disruptors of Runt domain/CBFb-SMMHC interaction – biochemical, FRET, Cerulean-Runt, Venus-CBFb-SMMHC, uHTS, […] (AID 1434). In kind it is protein assay.
T8 sequence (Q01196 whole entry, the tested form may be a part): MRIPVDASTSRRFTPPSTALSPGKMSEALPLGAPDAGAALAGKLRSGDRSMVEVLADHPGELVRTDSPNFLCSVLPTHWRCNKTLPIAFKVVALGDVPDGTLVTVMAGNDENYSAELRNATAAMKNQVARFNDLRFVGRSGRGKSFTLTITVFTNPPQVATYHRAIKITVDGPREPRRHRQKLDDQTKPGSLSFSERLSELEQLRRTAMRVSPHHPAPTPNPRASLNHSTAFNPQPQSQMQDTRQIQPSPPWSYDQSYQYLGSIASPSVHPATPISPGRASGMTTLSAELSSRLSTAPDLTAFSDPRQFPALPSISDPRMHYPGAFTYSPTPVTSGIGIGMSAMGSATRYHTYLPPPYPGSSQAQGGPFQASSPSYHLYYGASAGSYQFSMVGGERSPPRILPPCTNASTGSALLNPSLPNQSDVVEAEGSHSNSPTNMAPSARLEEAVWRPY
T8 sequence (Q13951 whole entry, the tested form may be a part): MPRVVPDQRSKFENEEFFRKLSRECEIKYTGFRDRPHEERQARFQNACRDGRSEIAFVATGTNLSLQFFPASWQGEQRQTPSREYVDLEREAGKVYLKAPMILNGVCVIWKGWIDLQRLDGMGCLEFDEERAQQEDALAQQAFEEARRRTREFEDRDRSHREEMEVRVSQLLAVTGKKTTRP
Test [18] deals with T8, Runt-related transcription factor 1/Core-binding factor subunit beta. The test is described as follows: Runt domain/CBFb-SMMHC interaction disruptors – biochemical, TR-FRET (AID 1438). Type of test: protein assay.
Test [19] can be described thus: HPDE-C7 pancreatic duct cell viability loss – fluorescence, HTS (AID 430). In kind it is functional, cell-based. The note with it: Homo sapiens.
The target of another test is T9, Estrogen receptor (Homo sapiens, UniProt P03372).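 Also: potency for inhibiting coactivator peptide recruitment to the receptor.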
T9 sequence (P03372 whole entry): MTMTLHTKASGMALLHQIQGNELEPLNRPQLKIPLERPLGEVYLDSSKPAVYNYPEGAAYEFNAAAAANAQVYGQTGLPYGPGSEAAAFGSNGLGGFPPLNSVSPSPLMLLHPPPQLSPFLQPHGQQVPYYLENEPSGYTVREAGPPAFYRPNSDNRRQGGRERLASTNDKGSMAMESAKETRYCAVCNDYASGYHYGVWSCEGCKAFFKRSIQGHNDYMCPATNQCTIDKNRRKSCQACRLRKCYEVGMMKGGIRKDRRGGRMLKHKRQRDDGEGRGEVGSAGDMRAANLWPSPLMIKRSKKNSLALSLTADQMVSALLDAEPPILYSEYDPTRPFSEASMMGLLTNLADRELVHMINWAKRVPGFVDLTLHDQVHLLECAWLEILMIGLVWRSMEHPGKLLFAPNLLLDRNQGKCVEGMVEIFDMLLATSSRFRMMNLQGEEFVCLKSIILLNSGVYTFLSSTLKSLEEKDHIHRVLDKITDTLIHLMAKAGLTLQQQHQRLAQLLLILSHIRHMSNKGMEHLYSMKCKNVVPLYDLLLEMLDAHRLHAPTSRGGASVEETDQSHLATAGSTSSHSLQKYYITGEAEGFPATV

Active and inactive are the calls of the source.

T2 sequence (P41145 whole entry): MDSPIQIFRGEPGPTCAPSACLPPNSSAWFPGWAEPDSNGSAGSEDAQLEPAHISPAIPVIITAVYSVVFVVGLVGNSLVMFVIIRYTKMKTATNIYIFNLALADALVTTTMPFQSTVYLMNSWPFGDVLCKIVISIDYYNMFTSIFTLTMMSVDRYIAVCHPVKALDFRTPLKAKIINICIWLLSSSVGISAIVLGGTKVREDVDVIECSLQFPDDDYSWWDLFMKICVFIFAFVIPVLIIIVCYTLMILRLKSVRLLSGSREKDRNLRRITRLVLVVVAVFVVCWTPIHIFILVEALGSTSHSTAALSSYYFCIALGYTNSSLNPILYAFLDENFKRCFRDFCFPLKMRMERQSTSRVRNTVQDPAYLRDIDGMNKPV
T5 sequence (P34972 whole entry): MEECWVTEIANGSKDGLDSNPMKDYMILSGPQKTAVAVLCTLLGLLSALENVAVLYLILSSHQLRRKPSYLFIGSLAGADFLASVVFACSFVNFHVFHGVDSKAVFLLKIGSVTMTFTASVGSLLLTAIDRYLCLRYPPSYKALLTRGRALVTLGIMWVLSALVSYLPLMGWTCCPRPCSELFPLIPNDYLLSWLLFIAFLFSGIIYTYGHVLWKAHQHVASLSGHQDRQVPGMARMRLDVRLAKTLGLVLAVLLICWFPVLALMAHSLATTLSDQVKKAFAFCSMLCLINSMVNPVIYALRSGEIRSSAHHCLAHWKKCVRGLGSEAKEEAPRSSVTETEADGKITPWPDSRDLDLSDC
T7 sequence (P11940 whole entry, the tested form may be a part): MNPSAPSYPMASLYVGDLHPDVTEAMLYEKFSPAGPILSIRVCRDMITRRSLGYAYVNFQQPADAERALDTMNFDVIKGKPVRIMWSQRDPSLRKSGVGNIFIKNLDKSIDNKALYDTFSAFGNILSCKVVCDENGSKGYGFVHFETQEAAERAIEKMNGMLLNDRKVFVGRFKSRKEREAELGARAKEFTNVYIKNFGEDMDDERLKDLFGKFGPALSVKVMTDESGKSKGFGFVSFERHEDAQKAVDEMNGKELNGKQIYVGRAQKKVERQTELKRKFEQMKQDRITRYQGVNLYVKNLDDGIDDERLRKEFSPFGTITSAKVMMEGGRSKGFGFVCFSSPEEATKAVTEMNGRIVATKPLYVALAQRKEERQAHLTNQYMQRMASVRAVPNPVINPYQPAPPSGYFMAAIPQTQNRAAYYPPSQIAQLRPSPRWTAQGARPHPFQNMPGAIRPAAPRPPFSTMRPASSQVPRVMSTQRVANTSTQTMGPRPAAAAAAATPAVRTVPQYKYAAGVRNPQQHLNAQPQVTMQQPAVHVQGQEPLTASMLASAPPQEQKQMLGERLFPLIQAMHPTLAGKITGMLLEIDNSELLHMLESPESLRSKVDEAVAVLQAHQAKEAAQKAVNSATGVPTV
T1 sequence (P41143 whole entry): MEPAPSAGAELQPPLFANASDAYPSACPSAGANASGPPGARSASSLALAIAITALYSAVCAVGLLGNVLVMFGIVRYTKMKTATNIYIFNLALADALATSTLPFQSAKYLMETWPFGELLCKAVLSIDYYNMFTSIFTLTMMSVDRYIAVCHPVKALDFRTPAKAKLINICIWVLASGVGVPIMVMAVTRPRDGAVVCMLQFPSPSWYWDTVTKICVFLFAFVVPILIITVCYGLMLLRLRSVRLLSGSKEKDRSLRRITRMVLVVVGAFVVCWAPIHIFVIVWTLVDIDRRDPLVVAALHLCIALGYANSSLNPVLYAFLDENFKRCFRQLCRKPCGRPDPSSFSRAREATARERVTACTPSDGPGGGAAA
Sequence of Cannabinoid receptor 1 (P21554 whole entry): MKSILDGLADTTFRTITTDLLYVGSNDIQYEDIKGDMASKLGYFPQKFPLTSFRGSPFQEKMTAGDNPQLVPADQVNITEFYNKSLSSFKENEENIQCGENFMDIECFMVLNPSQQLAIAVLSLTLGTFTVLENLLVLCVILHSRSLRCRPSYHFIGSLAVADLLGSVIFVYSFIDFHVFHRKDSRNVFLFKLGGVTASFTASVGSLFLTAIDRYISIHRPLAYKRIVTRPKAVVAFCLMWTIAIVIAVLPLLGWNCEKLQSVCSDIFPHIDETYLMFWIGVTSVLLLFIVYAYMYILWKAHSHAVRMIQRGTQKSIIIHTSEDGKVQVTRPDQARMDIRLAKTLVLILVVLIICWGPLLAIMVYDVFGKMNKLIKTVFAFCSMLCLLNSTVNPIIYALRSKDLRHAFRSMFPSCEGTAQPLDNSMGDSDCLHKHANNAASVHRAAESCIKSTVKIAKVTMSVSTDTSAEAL

As to `Cc1ccc(C)c(NC(S)=NC(NC(=O)OCc2ccccc2)C(Cl)(Cl)Cl)c1` (stereo unspecified), the EC50 (in test [1]; in test [4]; on Mu-type opioid receptor [7]) was > 32 µM (inactive) throughout. Moreover, the IC50 in test [2] was 1.53 µM (active); in [3], 6.2 µM (active); on Mu-type opioid receptor [5] it was > 32 µM (inactive); in test [6] it was > 32 µM (inactive).
On to `CC(C)NS(=O)(=O)c1ccc(NC(=S)NC(=O)c2ccc(-c3ccccc3)cc2)cc1`, for which the IC50 on Cannabinoid receptor 1 is > 32 µM (inactive); in test [8], > 100 µM (inactive); at Cannabinoid receptor 2 [9], > 32 µM (inactive); in [10], > 100 µM (inactive); in test [13], > 66 µM (inactive); in [15], > 66 µM (inactive). Besides, the EC50 is 0.544 µM (active) in test [11], 0.354 µM (active) in [12] and > 32 µM (inactive) at Cannabinoid receptor 2 [14].
`N#Cc1c(NCCN)nc(NCc2ccccc2)c2c1CCN(Cc1ccccc1)C2`: the EC50 in [16] and in test [19] was > 20 µM (not active) in each case. For the same compound, the IC50 in test [17] was 4.57 µM (active); in [18], 47.8 µM (active); on Estrogen receptor, 11.8 µM (active).

(Values after ChEMBL document CHEMBL1201862, “PubChem BioAssay data set” (2004).)
